The text below walks through data of patent EP0719251B1, “BICYCLO (2.2.2) OCTANE DERIVATIVES CHOLECYSTOKININ AND/OR GASTRIN ANTAGONISTS” (JAMES BLACK FOUNDATION LIMITED, priority 1993, dated 1995).

The target of one experiment is T1, CCKB receptor (Mus musculus, UniProt P56481).
T1 construct: The whole brains from male mice (CD1 22-25g; Charles River) were removed; from tissue; host or cells: cerebral cortex membranes of male CD1 mice
T1 sequence (P56481 1-453): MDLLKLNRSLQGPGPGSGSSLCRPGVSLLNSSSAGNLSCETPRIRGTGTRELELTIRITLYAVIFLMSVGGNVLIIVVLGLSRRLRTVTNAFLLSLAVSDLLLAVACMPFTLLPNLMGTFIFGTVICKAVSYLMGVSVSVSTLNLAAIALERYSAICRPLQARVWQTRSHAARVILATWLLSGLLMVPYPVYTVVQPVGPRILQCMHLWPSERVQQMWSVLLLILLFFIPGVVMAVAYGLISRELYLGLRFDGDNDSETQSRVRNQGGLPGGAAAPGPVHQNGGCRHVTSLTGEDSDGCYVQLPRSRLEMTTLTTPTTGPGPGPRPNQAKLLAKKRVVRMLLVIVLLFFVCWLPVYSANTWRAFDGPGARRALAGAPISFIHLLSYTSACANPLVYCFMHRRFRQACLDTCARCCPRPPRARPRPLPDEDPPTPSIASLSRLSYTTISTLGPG
Kind of experiment: radioligand binding assay at the CCKB receptor in mouse cortical membranes. To be noted: [125I]-CCK8S 200pM, 150 min at 21 ± 3°C; for Ki: read-out: CCKB pKi (converted). In outline: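 Radioligand binding was quantified by gamma counting after filtration through GF/B filters and cold 50 mM Tris-HCl (pH 7.4) washes. Tissue source was male CD1 mouse cortex, homogenised and twice centrifuged, then resuspended at 2 mg.ml^-1 original wet weight in pH 7.2 HEPES buffer containing bacitracin.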

Another experiment addresses T2, gastrin (Rattus norvegicus, UniProt P30553).
T2 construct: The stomach was excised and flushed with ca. 1 ml of unbuffered physiological saline solution; from tissue; host or cells: isolated whole stomach of immature rats (33-50 g, ca. 21 days old)
T2 sequence (P30553 1-452): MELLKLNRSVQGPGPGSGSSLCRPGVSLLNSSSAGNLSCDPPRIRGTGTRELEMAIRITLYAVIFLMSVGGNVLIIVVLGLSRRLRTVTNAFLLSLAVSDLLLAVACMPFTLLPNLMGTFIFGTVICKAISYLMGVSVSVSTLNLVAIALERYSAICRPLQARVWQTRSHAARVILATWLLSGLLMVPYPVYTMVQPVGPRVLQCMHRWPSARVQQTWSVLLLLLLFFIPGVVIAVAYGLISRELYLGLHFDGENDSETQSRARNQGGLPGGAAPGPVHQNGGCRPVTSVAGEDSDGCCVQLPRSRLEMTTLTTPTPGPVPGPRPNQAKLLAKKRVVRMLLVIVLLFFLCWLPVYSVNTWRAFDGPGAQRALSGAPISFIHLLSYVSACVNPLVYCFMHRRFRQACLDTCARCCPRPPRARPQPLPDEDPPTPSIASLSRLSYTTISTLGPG
Kind of experiment: gastrin antagonist activity in an immature rat stomach assay. Particulars: isolated immature rat stomach, cumulative pentagastrin dose-response curves, acid secretion; for Gastrin pKB: 60 min; for Kb: read-out: Gastrin pKB (converted). In outline: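 Isolated stomachs from immature rats (33-50 g, ca. 21 days) perfused at 1 ml min^-1 with O2-gassed unbuffered saline, perfusate pH monitored by electrode. After 120 min stabilisation, compounds added to serosal bath; cumulative pentagastrin dose-response curves begun 60 min later.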

In another experiment the target is T3, CCKA (Cavia porcellus, UniProt Q63931).
T3 construct: The pancreatata were removed from male guinea-pigs (200-300g; Dunkin Hartley); from tissue; host or cells: pancreas membranes of male Dunkin Hartley guinea-pigs
T3 sequence (Q63931 1-430): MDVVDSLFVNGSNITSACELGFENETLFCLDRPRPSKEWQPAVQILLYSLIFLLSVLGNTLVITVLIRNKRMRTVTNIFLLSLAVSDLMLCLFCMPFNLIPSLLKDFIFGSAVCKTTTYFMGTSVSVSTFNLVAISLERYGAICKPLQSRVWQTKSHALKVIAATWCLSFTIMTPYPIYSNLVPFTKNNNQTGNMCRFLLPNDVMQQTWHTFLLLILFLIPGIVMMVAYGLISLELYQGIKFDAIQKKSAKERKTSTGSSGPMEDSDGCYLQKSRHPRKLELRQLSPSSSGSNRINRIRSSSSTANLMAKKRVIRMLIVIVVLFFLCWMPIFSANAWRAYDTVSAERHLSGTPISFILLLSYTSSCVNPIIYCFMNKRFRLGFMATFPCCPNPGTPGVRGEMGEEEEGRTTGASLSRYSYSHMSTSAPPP
Kind of experiment: CCKA binding assay in guinea-pig pancreas membranes. To be noted: [125I]-CCK8(S) 200pM; for CCKA pKi: containing 0.375 µM PD134,308; for Ki: containing 0.375 µM PD134,308, read-out: CCKA pKi (converted). How it is done:
The compounds of the examples were also tested in a CCKÅ binding assay as follows:
The pancreatata were removed from male guinea-pigs (200-300g; Dunkin Hartley) and placed in ice-cold HEPES buffer (pH 7.2 @ 21 ± 3° ). The pancreatata were homogenised in 40 ml ice-cold HEPES buffer using a polytron (Brinkmann, PT10, setting 10) 4 x 1 second.
The homogenate was centrifuged at 39,800g for 15 min at 4°. The supernatant was discarded and the pellet re-suspended using a Teflon-in-glass homogeniser in 20 volumes of fresh buffer and recentrifuged as above. The final pellet was re-suspended using a Teflon-in-glass homogeniser to a tissue concentration of 1 mg.ml^-1 (original wet weight), and filtered through 500 µm pore-size Nytex mesh.
The membranes (400µl; containing 0.375 µM PD134,308) are incubated for 150 minutes at 21 ± 3° in a final volume of 0.5ml with HEPES buffer containing [^125I]-CCK8(S) (50µl; 200pM) and competing compound. Total and non-specific binding of [^125I]-CCK8 (S) are defined using 50µl of buffer and 50µl of 100nM L-364,718 respectively. The assay is terminated by rapid filtration through pre-soaked Whatman GF/B filters using a Brandell Cell Harvester. The filters were washed (3 x 3ml) with ice-cold 50mM Tris HCl (pH 7.4 at 4° ) and bound radioactivity is determined by counting (1 min) in a gamma counter.

As for `O=C(O)c1cc(NC(=O)[C@H](Cc2ccc3ccccc3c2)NC(=O)C2C3c4ccccc4C(c4ccccc43)C2C(=O)NCC23CC4CC(CC(C4)C2)C3)cc(C(=O)O)c1` (single isomer, unassigned) [Example 14, cis-7-(1S-(3,5-dicarboxyphenylaminocarbonyl)-2-(2-naphthyl) -ethylaminocarbonyl)-8-(1-adamantanemethylaminocarbonyl)-2,3,5,6-dibenzobicyclo[2.2.2]octane], at CCKB receptor, the “CCKB pKi” value stood at 6.5. Moreover, the “Gastrin pKB” value at gastrin was 6.9. Further, the “CCKA pKi” value on CCKA was 6.1.

For the compound `O=C(O)c1cc(NC(=O)[C@H](Cc2ccc3ccccc3c2)NC(=O)C2C3c4ccccc4C(c4ccccc43)C2C(=O)NCC23CC4CC(CC(C4)C2)C3)cc(C(=O)O)c1` (single isomer, unassigned) [Example 15, cis-7-(1S-(3,5-dicarboxyphenylaminocarbonyl)-2-(2-naphthyl)ethylaminocarbonyl)-8-(1-adamantanemethylaminocarbonyl) -2,3,5,6-dibenzobicyclo[2.2.2]octane], the “CCKB pKi” value on CCKB receptor stood at 6.7. Besides, the “Gastrin pKB” value at gastrin came to 5.8. Besides, the “CCKA pKi” value at CCKA was determined as 7.0.

Regarding `O=C(O)c1cc(NC(=O)[C@H](Cc2ccccc2F)NC(=O)C2C3c4ccccc4C(c4ccccc43)C2C(=O)NCC23CC4CC(CC(C4)C2)C3)cc(C(=O)O)c1` (single isomer, unassigned) [Example 16, cis-7-(1S-(3,5-dicarboxyphenylaminocarbonyl)-2-(2-fluorophenyl)-ethylaminocarbonyl)-8-(1-adamantanemethylaminocarbonyl) -2,3,5,6-dibenzobicyclo[2.2.2]octane], the values for the Ki at CCKB receptor and on CCKA were 3.16 nM and 1000 nM, respectively. The Kb on gastrin was 2.51 nM.

With `O=C(O)c1cc(NC(=O)[C@H](Cc2ccccc2F)NC(=O)C2C3c4ccccc4C(c4ccccc43)C2C(=O)NCC23CC4CC(CC(C4)C2)C3)cc(C(=O)O)c1` (single isomer, unassigned) [Example 17, cis-7-(1S-(3,5-dicarboxyphenylaminocarbonyl)-2-(2-fluorophenyl)ethylaminocarbonyl)-8-(1-adamantanemethylaminocarbonyl) -2,3,5,6-dibenzobicyclo[2.2.2]octane], the Ki on CCKB receptor was 6.31 nM; at CCKA, 794 nM. Moreover, the Kb at gastrin is 10 nM.

Consider `O=C(O)c1cc(NC(=O)[C@H](Cc2cccc(F)c2)NC(=O)C2C3c4ccccc4C(c4ccccc43)C2C(=O)NCC23CC4CC(CC(C4)C2)C3)cc(C(=O)O)c1` (single isomer, unassigned) [Example 18, cis-7-(1S-(3,5-dicarboxyphenylaminocarbonyl)-2-(3-fluorophenyl) -ethylaminocarbonyl)-8-(1-adamantanemethylaminocarbonyl)-2,3,5,6-dibenzobicyclo[2.2.2]octane], for which the Ki on CCKB receptor is 3.16 nM; at CCKA, 316 nM. Also, the Kb at gastrin was 3.98 nM.

Regarding `O=C(O)c1cc(NC(=O)[C@H](Cc2cccc(F)c2)NC(=O)C2C3c4ccccc4C(c4ccccc43)C2C(=O)NCC23CC4CC(CC(C4)C2)C3)cc(C(=O)O)c1` (single isomer, unassigned) [Example 19, cis-7-(1S-(3,5-dicarboxyphenylaminocarbonyl)-2-(3-fluorophenyl)ethylaminocarbonyl)-8-(1-adamantanemethylaminocarbonyl) -2,3,5,6-dibenzobicyclo[2.2.2]octane], the figures for the Ki on CCKB receptor and at CCKA were 10 nM and 398 nM, respectively. The Kb on gastrin was 25.1 nM.

Take `O=C(O)c1cc(NC(=O)[C@@H](Cc2cccs2)NC(=O)C2C3c4ccccc4C(c4ccccc43)C2C(=O)NCC23CC4CC(CC(C4)C2)C3)cc(C(=O)O)c1` (single isomer, unassigned) [Example 21, cis-7-(1R-(3,5-dicarboxyphenylaminocarbonyl)-2-(2-thiophenyl)ethylaminocarbonyl)-8-(1-adamantanemethylaminocarbonyl)-2,3,5,6-dibenzobicyclo[2.2.2]octane]: the results for the Ki on CCKB receptor and on CCKA were 50.1 nM and 1260 nM, respectively. Also, the Kb at gastrin was 63.1 nM.

Turning to `O=C(O)c1cc(NC(=O)[C@H](Cc2ccccc2)NC(=O)C2C3c4ccccc4C(c4ccccc43)C2C(=O)NCC2CCCCC2)cc(C(=O)O)c1` (single isomer, unassigned) [Example 30, cis-7-(1S-(3,5-dicarboxyphenylaminocarbonyl)-2-phenylethylaminocarbonyl)-8-(1-cyclohexanemethylaminocarbonyl)-2,3,5,6-dibenzobicyclo [2.2.2] octane], the Ki is 20 nM on CCKB receptor and 3980 nM on CCKA. Besides, the Kb on gastrin was 50.1 nM.

Regarding `O=C(O)c1cc(NC(=O)[C@H](Cc2ccccc2)NC(=O)C2C3c4ccccc4C(c4ccccc43)C2C(=O)NCC2CCCCC2)cc(C(=O)O)c1` (single isomer, unassigned) [Example 31, cis-7-(1S-(3,5-dicarboxyphenylaminocarbonyl) -2-phenylethylaminocarbonyl)-8-(cyclohexanemethylaminocarbonyl) -2,3,5,6-dibenzobicyclo[2.2.2]octane], the Ki on CCKB receptor is 200 nM; at CCKA it was 1260 nM. In addition, at gastrin, the Kb was 251 nM.

Turning to `O=C(O)c1cc(NC(=O)[C@H](Cc2ccccc2)NC(=O)C2C3c4ccccc4C(c4ccccc43)C2C(=O)NCc2cccc3ccccc23)cc(C(=O)O)c1` (single isomer, unassigned) [Example 32, cis-7-(1S-(3,5-dicarboxyphenylaminocarbonyl)-2-phenylethylaminocarbonyl)-8-(1-naphthalenemethylaminocarbonyl) -2,3,5,6-dibenzobicyclo [2.2.2]octane], the Ki on CCKB receptor was 10 nM; at CCKA, 501 nM. In addition, at gastrin, the Kb is 25.1 nM.
